Assay results: patent US4465681A, “Bis-(aminoalkoxy)-phenyl, pyridyl ketones, and use as immunological agents” (Yoshitomi Pharmaceutical Industries Ltd., priority 1980, dated 1984)
Entries after “also recorded” stand apart in the source; their conditions may differ. Counter-ions that a name gives are not always drawn.

Experiments:
[1] = test system: plaque-forming cells (PFC) in the spleen; experiment: Activity for suppressing immune response in BALB/C strain mice: plaque-forming cells (PFC); type: in vivo, female BALB/C strain mice; settings: 30 mg/kg orally, same and next day of sensitization; 4 days after sensitization; control 17.4 ± 2.3 (for A), 9.5 ± 1.0 (for B); **p < 0.01 vs control
Description: (§1) Female BALB/C strain mice (6 weeks old) were used by dividing into groups of 6 animals. The sensitization was made by intraperitoneal injection of antigen: 5×10^8 sheep red blood cells. Each mouse was orally administered with the test compound on the same day and the next day of the sensitization. Four days after the sensitization, the number of plaque-forming cells (PFC) in the spleen, and the number of rosette-forming cells (RFC) in the spleen and/or thymus were measured in a usual manner.

[2] = test system: rosette-forming cells (RFC) in the spleen and/or thymus; experiment: Activity for suppressing immune response in BALB/C strain mice: rosette-forming cells (RFC); type: in vivo, female BALB/C strain mice; settings: 30 mg/kg orally, 4 days after sensitization; for No. of RFC, Spleen: control 135 ± 27 (for A), 172 ± 32 (for B), B **p < 0.01 vs control
Description: as §1

[3] = test system: rosette-forming cells (RFC) in the spleen and/or thymus; experiment: Activity for potentiating immune response in C57BL/6 strain mice: rosette-forming cells (RFC); type: in vivo, female C57BL/6 strain mice; settings: 30 mg/kg orally, 6 days after sensitization; for No. of RFC, Spleen: control 75 ± 17 (for A), 55 ± 11 (for B), **p < 0.01 vs control
Description: Female C57BL/6 strain mice (6 weeks old) were used dividing into groups of 6 animals. The sensitization was made by intraperitoneal injection of antigen: 5×10^8 sheep red blood cells. Each mouse was orally administered with the test compound on the same day and next day of the sensitization. Six days after the sensitization, the number of rosette-forming cells (RFC) in the spleen and/or thymus was measured in a usual manner.

peritoneal macrophages = experiment: Activation of peritoneal macrophage in mice (phagocytosis of yeast); type: cell-based, male dd mice; settings: 0 μM control 33.9 ± 0.8
Description: Peritoneal macrophages were obtained from male dd mice (8 weeks old). After washing macrophages, the cells were adjusted to 5×10^6 macrophages/ml in Hanks' solution. A mixture containing 100 μl of the macrophage suspension, 50 μl of mice serum and 10 μl of the test compound was preincubated at 37° C. for 10 minutes, and then 50 μl of yeast cells (2.5×10^8 /ml) was added thereto. After further incubation of the mixture at 37° C. for 20 minutes, the number of macrophages phagocytosing yeast was counted in a usual manner.

Acute toxicity = type: in vivo; settings: mouse, in vivo
Description: (§2) Acute toxicity was determined using male dd mice (8 weeks old).

male dd mice = experiment: Acute toxicity; type: in vivo; settings: p.o.; printed beside LD50 >1000 mg/kg
Description: as §2

adjuvant arthritis = experiment: Anti-adjuvant arthritis activity in rats; type: in vivo, male Lewis rats
Description: (A model disease of rheumatoid arthritis) Male Lewis rats (8-9 weeks old) were used. Adjuvant arthritis was caused by the method described by B. B. Newbould in "Brit. J. Pharmacol.", 21, 127 (1963). Twenty-one days after the subcutaneous injection of a suspension of killed tubercle bacillus in Freund's adjuvant into the tail of the rats, the severity of arthritis was assayed as the hindleg volume. Each group of the rat was orally administered with the test compound once a day.

Structure (SMILES)	No. of PFC, Spleen [1]	No. of RFC, Spleen [2]	No. of RFC, Spleen [3]	Phagocytosis (peritoneal macrophages; 10 μM) [%]	Phagocytosis (peritoneal macrophages; 30 μM, **p < 0.01 vs control) [%]	Phagocytosis (peritoneal macrophages; 100 μM, **p < 0.01 vs control) [%]	LD50 (Acute toxicity; ip) [mg/kg]	LD50 (Acute toxicity; po) [mg/kg]	dead/total animals (male dd mice)	Volume of Hindleg (adjuvant arthritis; 50 mg/kg orally once a day, twenty-one days after adjuvant injection, control 2.40 ± 0.20, **p < 0.01 vs control) [mL]	anti-adjuvant arthritis activity (in words) (adjuvant arthritis; dose of 50 mg/kg, dihydrochloride hemihydrate, 50 mg/kg)	No. of RFC, Thymus ([2]; control 9.5 ± 1.0, **p < 0.01 vs control)	No. of RFC, Thymus ([3]; control 2.8 ± 0.5, **p < 0.01 vs control)
CC(CN(C)C)Oc1ccc(C(=O)c2cccnc2OC(C)CN(C)C)cc1 (stereo not shown) [Test compound B, 2,4'-bis(1-methyl-2-dimethylaminoethoxy)-3-benzoylpyridine dioxalate]	4.6 ± 0.8 × 10^4	88 ± 10 × 10^4	149 ± 22 × 10^4	40.8 ± 2.7	49.6 ± 2.1	63.4 ± 6.7	250	> 1000	0/5				
CN(C)CCOc1ccc(C(=O)c2cccnc2OCCN(C)C)cc1 [Test compound A, 2,4'-bis(2-dimethylaminoethoxy)-3-benzoylpyridine dihydrochloride hemihydrate]	9.0 ± 1.4 × 10^4	126 ± 24 × 10^4	214 ± 46 × 10^4	35.5 ± 1.9	46.5 ± 2.7	54.3 ± 3.1	300	> 1000	1/6	1.17 ± 0.29	significant inhibition of adjuvant arthritis; also recorded: has anti-arthritis activity	1.2 ± 0.4 × 10^4	7.4 ± 1.1 × 10^4
